The text below walks through data of US5646136A, “Methods of inhibiting angiogenesis and tumor growth, and treating ophthalmologic conditions with angiostatic and therapeutic steroids” (Duke University, priority 1994, dated 1997).

“Also recorded” adds a separate entry of the source.

Data set [1] deals with human pancreatic HPAF cell line. Put plainly: Growth of human pancreatic HPAF tumor in nude mice. In kind it is in vivo. Here is the method: The HPAF tumor cell line is resistant to virtually all chemotherapeutic agents and grows rapidly in the nude mouse. Growth inhibition of this tumor for a period of time is thus indicative of significant anti-tumor activity.
Nude mice were implanted subcutaneously with 500,000 cells of the human pancreatic HPAF cell line. See Selvan et al., Drug Design and Discovery 9: […] (1992). Treatment with 9α-fluoro-11β-hydroxy-16β-methyl-1,4-androstadien-3-one 17β-carboxylic acid steroid (20 mg/kg subcutaneously in 90 percent propylene glycol-ethanol, injected twice daily 6 days per week) was commenced the following day and continued for one month. Growth of tumor was inhibited for about 3 weeks compared to controls. After this point, rapid growth ensued.

Data set [2] has as its system glucocorticoid activity. The data set can be described thus: Glucocorticoid activity (general statements).
In data set [3] the test system is corneal neovascularization. The data set can be described thus: Inhibition of corneal neovascularization in cauterized rat corneas, topical application four times per day for four days. In kind it is in vivo. Also on record: Neovascularization (total length of blood vessels in the cornea): unit not given here. The note with it: for Inhibition of corneal vascularization (significance, in words): applied topically; for Corneal angiogenesis score / Neovascularization (total length of blood vessels in the cornea): mean ± S.D.; for Corneal angiogenesis score: subjective score 1+ to 4+; for Percent Inhibition of neovascularization (angiogenesis score) / Percent Inhibition (total vessel length): versus vehicle. Here is the method: (§1) The ability of etianic acids to inhibit angiogenesis was evaluated in vivo in rats. Each animal had its corneas cauterized with silver nitrate/potassium nitrate. The cauterization causes the normally avascular cornea to undergo neovascularization (anglogenesis). This animal model, refined by Proia et al., Lab. Invest. 58: 473-479 (1988) and now a well-established assay, quantifies corneal neovascularization by computerized image analysis. […] Ophthalmol. Vis. Science 30: 1588-1593 (1989), and can provide a more definitive evaluation of angiostatic activity than models using the chorioallantoic membrane in the chick egg or the rabbit eye model. See Proia et al., Exp. Eye Res. (in press--to be published in Vol. 57 in 1993).
(§2) Female rats were obtained from Zivic-Miller Laboratories, Zelienople, Pa. There were 6-8 rats included in each treatment group. Neovascularization was induced by cauterizing both corneas of each anesthetized rat; this was performed by applying the tip of a silver nitrate/potassium nitrate to the cornea for 5-7.5 seconds.
The corneal tissues were treated with steroid formulations.
Steroids were formulated in vehicle containing 10 percent Tween 20 (polyoxyethylene sorbitan monolaurate) dissolved in 0.9 percent saline with percent (by volume) 0.2M tris (hydroxymethyl)aminomethane, pH 7.4. […] All steroids were tested at a concentration of 1 percent; additionally, some formulations were also tested at 0.01 percent, 0.1 percent, and 2.5 percent. Three 10 μl drops of each concentration of steroid were applied topically to each cauterized cornea four times per day (8:00 a.m., noon, 4:00 p.m., and 8:00 p.m.).
(§3) After four days of treatment, the animals were euthanized by rapid asphyxiation in a carbon dioxide chamber. The vasculature was perfused with a mixture of 10 percent india ink/11 percent gelatin/lactated Ringer's solution. Corneal tissue was dissected and prepared as flat mounts. During dissection, the corneas were examined with a dissecting microscope, and the degree of neovascularization was graded numerically from 1+ to 4+. After dehydration with alcohols, cleaning with xylene, mounting, and drying, the area of each cornea and the length of blood vessels were determined by computerized image analysis.
Statistical evaluation of inhibition of corneal neovascularization by each concentration of drug was evaluated using Mann Whitney U Tests (one-tailed; P<0.05=significant difference). […] In all cases, however, image analysis was used to quantitatively confirm visual observations.

Data set [4] has as its system thymus. Put plainly: Thymus weight of rats treated topically in the corneal angiogenesis study. In kind it is in vivo, rat. Here is the method: as §1, §2
(§4) Steroids were formulated in vehicle containing 10 percent Tween 20 (polyoxyethylene sorbitan monolaurate) dissolved in 0.9 percent saline with percent (by volume) 0.2M tris (hydroxymethyl)aminomethane, pH 7.4. The steroids dissolved readily when the pH was adjusted to 7.0-8.0 with NaOH or KOH. All steroids were tested at a concentration of 1 percent; additionally, some formulations were also tested at 0.01 percent, 0.1 percent, and 2.5 percent. Three 10 μl drops of each concentration of steroid were applied topically to each cauterized cornea four times per day (8:00 a.m., noon, 4:00 p.m., and 8:00 p.m.).
as §3

In data set [5] the test system is corneal neovascularization. The data set can be described thus: Corneal angiogenesis inhibition, subcutaneous injection once/day. In kind it is in vivo, rat. Here is the method:
as §1, §2, §3
The ability of compounds 2013, 518, and 513 to inhibit corneal angiogenesis when injected subcutaneously once/day to was assessed on rats prepared as described in Example 8. Dexamethasone was used as a positive control.

Data set [6] is described as follows: Body weight of rats treated topically in the corneal angiogenesis study. In kind it is in vivo, rat. Here is the method: as §1, §2, §4
After four days of treatment, the animals were euthanized by rapid asphyxiation in a carbon dioxide chamber. The vasculature was perfused with a mixture of 10 percent india ink/11 percent gelatin/lactated Ringer's solution. […] After dehydration with alcohols, cleaning with xylene, mounting, and drying, the area of each cornea and the length of blood vessels were determined by computerized image analysis.

For the molecule “9α-fluoro-11β-hydroxy-16β-methyl-1,4-androstadien-3-one 17β-carboxylic acid”, the “Period for which growth of tumor was inhibited compared to controls” value in data set [1] (20 mg/kg subcutaneously twice daily 6 days per week, one month) is “about 3 weeks”.

Take `C=C1C[C@H]2[C@@H]3C=C(C)C4=CC(=O)C=C[C@]4(C)[C@H]3CC[C@]2(C)[C@@]1(OC(C)=O)C(C)=O` [1-dehydro melegesterol acetate, 17α-acetoxy-6-methyl-16-methylene-1,4,6-pregnatriene-3,20-dione]: the “Glucocorticoid activity (in words)” value in data set [2] was “lacks glucocorticoid activity”.

Regarding `C[C@]12C[C@](C)(O)[C@H]3[C@@H](CCC4=CC(=O)C=C[C@@]43C)[C@@H]1CC[C@@H]2O` [11β,17β-dihydroxy-11α-methyl-1,4-androstadien-3-one, reference compound], the “Glucocorticoid activity (in words)” value in data set [2] is recorded as “anti-glucocorticoid”.

On to `C[C@]12CCC(=O)C=C1CC[C@@H]1[C@@H]2[C@@H](O)C[C@@]2(C)[C@H]1CC[C@]2(O)C(=O)O` [Compound 323, 17β-carboxyl-11β,17α-dihydroxy-4-androsten-3-one], for which the “Inhibition of corneal vascularization (significance, in words)” value (from here on “Inhibition … (significance, in words)”) in data set [3] is “did cause significant inhibition of corneal vascularization; also recorded: significantly suppressed”. Further, the Corneal angiogenesis score amounted to 1.7 ± 1.1 in data set [3] (topical 0.01%), 2.1 ± 0.5 in data set [3] (topical 0.1%) and 1.3 ± 0.9 in data set [3] (topical 1.0%). The “Percent Inhibition of neovascularization (angiogenesis score)” value (“Percent Inhibition of neovascularization” below) in data set [3] (topical 1.0%) was found to be 28%.

Take `C[C@H]1C[C@H]2[C@@H]3CCC4=CC(=O)C=C[C@]4(C)[C@@]3(F)[C@@H](O)C[C@]2(C)[C@@]1(O)C(=O)O` [Compound 513, 17β-carboxyl-11β,17α-dihydroxy-9α-fluoro-16β-methyl-1,4-androstadien-3-one]: in data set [4] (rat, in vivo), the “Change in thymus weight (in words)” value is on record as “did not cause any significant change in thymus weight”, the “Decrease of thymus weight from control” value was 45% and the Thymus weight turned out to be 0.187±0.042 gm. Besides, in data set [5] (10 mg/kg/day subcutaneous), the Neovasc. was 8.2 ± 1.1% and the “Reduction of corneal neovascularization versus vehicle” value was -46.7%. Besides, the “Growth of HPAF tumor (in words)” value in data set [1] (nude mice) was “inhibits growth of the human HPAF pancreatic tumor in nude mice”. In addition, the “Loss of body weight (in words)” value in data set [6] (rat, in vivo) is given as “no significant loss of body weight”. The “Degree of inhibition of corneal angiogenesis compared with dexamethasone” value in data set [3] (1 percent compound topical vs 0.1 percent dexamethasone sodium phosphate) is recorded as “appeared similar to that caused by topically applied 0.1 percent dexamethasone sodium phosphate”. Further, the “Inhibition … (significance, in words)” value in data set [3] was “did cause significant inhibition of corneal vascularization”. Further, in data set [3] (topical 0.01%), the Corneal angiogenesis score amounted to 1.8 ± 0.4 and the “Percent Inhibition of neovascularization” value stood at 0%. In data set [3] (topical 0.1%), the Corneal angiogenesis score was 1.1 ± 0.9 and the “Percent Inhibition of neovascularization” value worked out at 39%. Moreover, in data set [3] (topical 1.0%), the Corneal angiogenesis score was found to be 0.4 ± 0.4 and the “Percent Inhibition of neovascularization” value came to 78%.

For the molecule `C[C@H]1C[C@@H]2[C@H]([C@@H](O)C[C@@]3(C)[C@H]2CC[C@]3(O)C(=O)O)[C@@]2(C)C=CC(=O)C=C12` [Compound 517, 17β-carboxyl-11β,17α-dihydroxy-6α-methyl-1,4-androstadien-3-one], in data set [3], the “Inhibition … (significance, in words)” value is listed as “did not significantly inhibit corneal vascularization”.

In data set [5] (10 mg/kg/day subcutaneous), `C[C@@H]1C[C@H]2[C@@H]3CCC4=CC(=O)C=C[C@]4(C)[C@@]3(F)[C@@H](O)C[C@]2(C)[C@@]1(O)C(=O)O` [Compound 518, 17β-carboxyl-11β,17α-dihydroxy-9α-fluoro-16α-methyl-1,4-androstadien-3-one] gave a Neovasc. of 15.7 ± 5.8%. Besides, in data set [3], the “Inhibition … (significance, in words)” value is reported as “did not significantly inhibit corneal vascularization”.

Take `C[C@]12C[C@H](O)[C@H]3[C@@H](CCC4=CC(=O)CC[C@@]43C)[C@@H]1CC[C@@H]2C(=O)O` [Compound 525, 17β-carboxyl-11β-hydroxy-4-androsten-3one]: the “Inhibition … (significance, in words)” value in data set [3] is “did not significantly inhibit corneal vascularization”.

Take `C[C@]12CC[C@@H](O)CC1CC[C@@H]1[C@@H]2[C@@H](O)C[C@@]2(C)[C@H]1CC[C@]2(O)C(=O)O` (stereo partly drawn) [Compound 526, 17β-carboxyl-3α,11β,17α-trihydroxy-androstane]: the “Inhibition … (significance, in words)” value in data set [3] is “did not significantly inhibit corneal vascularization”.

In the case of `C[C@]12CCC(=O)C=C1CC[C@@H]1[C@@H]2C(=O)C[C@@]2(C)[C@H]1CC[C@]2(O)C(=O)O` [Compound 527, 17β-carboxyl-17α-hydroxy-4-androsten-3,11-dione], the “Inhibition … (significance, in words)” value in data set [3] is recorded as “did not significantly inhibit corneal vascularization”.

As to `C[C@@H]1C[C@H]2[C@@H]3C[C@H](F)C4=CC(=O)C=C[C@]4(C)[C@@]3(F)[C@@H](O)C[C@]2(C)[C@@]1(O)C(=O)O` [Compound 532, 6,9-difluoro-11β,17-dihydroxy-16α-methylpregna-1,4-diene-3-one-17β-carboxylic acid], in data set [4] (rat, in vivo), the “Thymus weight difference between vehicle- and drug-treated groups (in words)” value was “no significant difference between vehicle- and drug-treated groups”. Also, in data set [3], the “Inhibition … (significance, in words)” value was “did cause significant inhibition of corneal vascularization; also recorded: ability of this compound to inhibit corneal neovascularization; also recorded: significant differences between vehicle and Compound 532 at all concentrations”. Also, the “Neovascularization (total length of blood vessels in the cornea)” value stood at 355.4 ± 62.2 in data set [3] (topical 0.01 percent), 322.0 ± 78.0 in data set [3] (topical 0.1 percent) and 202.2 ± 74.3 in data set [3] (topical 1.0 percent). In addition, the “Percent Inhibition (total vessel length)” value in data set [3] (topical 0.01 percent) was found to be 12.3%; in data set [3] (topical 0.1 percent), 20.6%; in data set [3] (topical 1.0 percent) it was 50.1%.

Regarding `C[C@]12CC[C@H]3[C@@H](CCC4=CC(=O)CC[C@@]43C)[C@@H]1CC[C@@H]2C(=O)O` [Compound 1000, 4-androsten-3-one-17β-carboxylic acid], the “Inhibition … (significance, in words)” value in data set [3] is given as “did not significantly inhibit corneal vascularization”.

In the case of `C[C@@H]1C[C@H]2[C@@H]3CCC4=CC(=O)C=C[C@]4(C)[C@@]3(F)[C@@H](O)C[C@]2(C)[C@@]1(O)C(=O)CO` [dexamethasone, reference compound], the “Reduction of thymus weight” value in data set [4] (topical 0.1 percent, similar experiment) was found to be 75%. Besides, in data set [5] (1 mg/kg/day subcutaneous), the Neovasc. worked out at 9.3 ± 2.2% and the “Reduction of corneal neovascularization versus vehicle” value is recorded as -39.6%. Further, in data set [6] (topical 0.1 percent, end of four days of treatment), the “Body weight less than control rats” value worked out at 17%.
